Source: ChEMBL document CHEMBL1151395, “Cytotoxic Flavones From Centaurea urvillei” (J Nat Prod, 1982)
Activity calls are given as the source filed them. The rule behind the calls is not given here.

System: Fibroblast
Test: Cytotoxicity against L-strain mouse fibroblasts at 0.05 mg/ml
Type: functional, cell-based

In the case of COc1c(O)cc2oc(-c3ccc(O)cc3)cc(=O)c2c1O, the Activity is reported as “Active”.
